Results taken from article PMC4424350, “Unraveling the Specific Regulation of the Central Pathway for Anaerobic Degradation of 3-Methylbenzoate” (The Journal of Biological Chemistry, 2015).

Target: T1, MbdR (MbdR-His6) (Azoarcus sp., UniProt Z9KMW0QJC7)
T1 construct: full-length, C-terminal His6 (pETmbdR), expressed in E. coli BL21(DE3), Ni-NTA; dimer in solution
Experiment: gel retardation (release of promoter DNA); DNase I footprinting; in vitro transcription
Type: binding
Conditions: inducer; 30 nM MbdR-His6 with PO or PB1 DNA probe, 20 mM Tris-HCl pH 7.5, 50 mM KCl, 30 °C

Cc1cccc(C(=O)SCCNC(=O)CCNC(=O)[C@H](O)C(C)(C)COP(=O)(O)OP(=O)(O)OC[C@H]2O[C@@H](n3cnc4c(N)ncnc43)[C@H](O)[C@@H]2OP(=O)(O)O)c1 [3-methylbenzoyl-CoA]
gel retardation (release of promoter DNA); DNase I footprinting; in vitro transc: 3-methylbenzoyl-CoA inhibited the interaction of MbdR with the PO and PB1 probes
